Several values for one entry are separate records, joined by “and”; a condition that tells them apart may be missing. Identical values can stand only once. Entries after “also recorded” stand apart in the source; their conditions may differ.
Tests used:
[1] = tested on: intra-abdominal adhesion formation; assay: Standard mouse adhesion model (cecal abrasion, silicone patch), Example 2, sacrifice on postoperative day 10 or 30; assay type: in vivo, C57BLJ6 mice; conditions: for Median cecal: median cecal adhesion score 0-4 (IQR); for Median extent / Median tenacity: median score 0-4 (IQR); for Total score: total median adhesion score 0-12 (IQR); for intra-abdominal adhesion formation compared with control: FIG. 1, FIG. 2; for long-term intra-abdominal adhesion formation compared with control: FIG. 3
Protocol: Thirty-seven 6- to 8-wk old C57BLJ6 mice (The Jackson Laboratory, Bar Harbor, Me.) were housed in cages of five mice with food and water ad libitum. The mice were acclimated to the facility for at least 72 h prior to surgery. A standard mouse adhesion model was performed as previously described (Chiang S C., et al (2000) J Pediatr Surg 35:189). After the mice were anesthetized with inhaled isoflurane, a midline incision was made, the cecum was eviscerated, rubbed gently with two cotton swabs, and then returned to anatomical position. A silicone patch (5.0×5.0×0.127 mm) (Bentec Medical, Woodland, Calif.) was sutured to the right abdominal wall, lateral to the epigastric vessels, with 7-0 nylon. One day prior to surgery, the mice were randomly treated with sunitinib (40 mg/kg in 100 methylcellulose) or methylcellulose control (100 uL). This dose was selected based on previous studies (Morimoto A M., (2004) Oncogene 23:1618; Takahashi H., et al (2006) J Ocul Pharmacol Ther 22:213; Pietras K., et al (2005) J Clin Ocol 23:939) Both groups were treated daily by orogastric gavage at the same dose for 10 days. On postoperative day 10, the mice were sacrificed and adhesions were scored by an observer who was blinded to the treatment groups, based on a previously described scoring system (Chiang S C., et al (2000), supra). The experiment was then repeated with sacrifice on postoperative day 30. The adhesion score was based on the extent of the patch covered by adhesions, the tenacity of adhesions to the patch, and the strength of cecal adhesions. Each criterion was scored from 0-4 and the sum of the three scores was the final adhesion score. The lowest and highest possible scores were 0 and 12, respectively. The tenacity of the adhesions to the patch was scored: 0=none, 1=adhesions fell apart, 2=lysed with traction, 3=lysed with blunt dissection, 4=lysed with sharp dissection. The extent of the patch covered was scored: 0=0%, 1=<25%, 2=25% to 50%, 3=50% to 75%, 4=>75%. The tenacity of cecal adhesions was scored: 0=none, 1=adhesions fell apart, 2=lysed with traction, 3=lysed with blunt dissection, 4=lysed with sharp dissection. Statistical analysis of adhesion scores was conducted using the Mann-Whitney rank sum test. The conventional 2-tailed P-value of 0.05 was used to establish significance. The results are presented as median adhesion score and interquartile range (IQR: 25th-75th percentile). The statistical program used was SigmaStat (SPSS, Chicago, Ill.).

adhesion formation = assay: Mouse adhesion model (silicone patch on abdominal wall, cecal abrasion), Example 1; assay type: in vivo, C57BL/6 mice
Protocol: Ten 7 week old male C57BL/6 mice were anesthetized with isoflurane and a midline laparotomy was performed. A 5.0 mm×5.0 mm piece of sterile silicone was attached to the right abdominal wall with 7.0 prolene sutures. The cecum then was gently rubbed with 2 cotton swabs to promote adhesion formation.
Two groups of 5 mice were treated with either 40 mg/kg/day of sunitinib in methylcellulose or methyl cellulose alone beginning the day before the adhesion operation and administered daily for 10 days. After 10 days of treatment, the animals were anesthetized with avertin, sacrificed, and the adhesions were scored.
The total adhesion score was the sum of the 3 individual scores. A minimum score was 0 and the maximum score was 12. Tenacity was rated as none (0), adhesions fell apart (1), lysed with traction (2), lysed with blunt dissection (3), and lysed with sharp dissection (4). Extent was measured as the percent of the patch covered by adhesion: 0% (0), <25% (1), 25 to 50% (2), 50 to 75% (3), and >75% (4). Cecal adhesions were graded as none (0), adhesions fell apart (1), lysed with traction (2), lysed with blunt dissection (3), and lysed with sharp dissection (4). The differences between the treated and untreated groups were significant (P=0.021).

adhesions of the uterus = assay: Standard rabbit adhesion procedure (uterine horn abrasion), Example 3; assay type: in vivo, New Zealand white rabbits; conditions: for Extent of Uterus Covered: median percent involvement score 0-4 (IQR); for Extent of Uterus Covered / Total score / Adhesion Free Rabbits: 10 mg/kg daily for ten days; for Extent of Uterus Covered / Total score: p=0.003; for Total score: median total adhesion score (IQR); for Adhesion Free Rabbits: number of rabbits out of N = 8 surviving
Protocol: Twenty female New Zealand white rabbits underwent a standard rabbit adhesion procedure. The uterus and its bilateral horns were eviscerated, and abraded with the scalpel until punctate hemorrhages appeared. Collateral blood supply in the right mesosalpinx was tied off with 5-0 silk ties. The uterus was then returned to normal anatomic position. One day prior to surgery, the rabbits were randomly assigned to be treated with sunitinib at a dose of 10 mg/kg or saline control via orogastric gavage. Both groups were treated daily for a total of ten days. On postoperative day ten, the rabbits were sacrificed and their adhesions were scored by two observers who were blinded to their treatments. Adhesions are graded based on their tenacity (0=no adhesions, 1=adhesions fall apart, 2=adhesions lysed by traction, 3=adhesions lysed with blunt dissection, 4=adhesions lysed with sharp dissection) and the percent of uterus involved (0=none, 1=<25%, 2=25-50%, 3=51-75%, 4=>75%).

[2] = long-term, postoperative day 30, treated 10 d, n = 10, P=0.049
[3] = long-term, postoperative day 30, treated 10 d, n = 10, P=0.049, listed as sunitinib
[4] = postoperative day ten, N = 8, 10 mg/kg
[5] = postoperative day ten, N = 8, listed as Sunitinib + saline, 10 mg/kg

Q: `CCN(CC)CCNC(=O)c1c(C)[nH]c(/C=C2\C(=O)Nc3ccc(F)cc32)c1C` [Sunitinib, sunitinib malate] was tested. Which Median cecal ([1]; long-term, postoperative day 30, treated 10 d, n = 10, P=0.225) did it give?
A: Its Median cecal is 0 (IQR 0-2.0).

Q: And the Median cecal ([1]; long-term, postoperative day 30, treated 10 d, n = 10, P=0.225, listed as sunitinib)?
A: The Median cecal was 0.0 (IQR 0-2.0).

Q: What about the Median extent [1, 2] of the same compound?
A: Its Median extent is 0 (IQR 0-1.0).

Q: What about the Median extent [1, 3] of the same compound?
A: The Median extent was 0.0 (IQR 0-1.0).

Q: And the Median tenacity ([1]; long-term, postoperative day 30, treated 10 d from day prior to surgery, n = 10, P=0.011)?
A: The Median tenacity was 0 (IQR 0-0.5).

Q: And the Median tenacity ([1]; long-term, postoperative day 30, treated 10 d from day prior to surgery, n = 10, P=0.011, listed as sunitinib)?
A: The Median tenacity was 0.0 (IQR 0.0-0.5).

Q: And the Adhesion free mice ([1]; long-term, postoperative day 30, number of mice out of n = 10)?
A: Its Adhesion free mice is 6.

Q: What about the mice completely adhesion-free ([1]; long-term, postoperative day 30, six of 10 mice) of the same compound?
A: Its mice completely adhesion-free is 60%.

Q: And the Total score [1, 2]?
A: Its Total score is 0 (IQR 0-3.0).

Q: What about the Total score [1, 3] of the same compound?
A: The Total score was 0.0 (IQR 0.0-3.0).

Q: What about the “intra-abdominal adhesion formation compared with control” value ([1]; postoperative day 10, P=0.002) of the same compound?
A: The value was “significantly decreased”.

Q: What about the “intra-abdominal adhesion formation compared with control” value ([1]; postoperative day 10, P=0.002, listed as sunitinib) of the same compound?
A: Its value is “adhesion free; also recorded: significantly decreased”.

Q: What about the Median cecal ([1]; postoperative day 10, 40 mg/kg daily gavage for 10 days, n = 18, P=0.002) of the same compound?
A: Its Median cecal is 2.0 (IQR 0-2.0).

Q: What about the Median extent ([1]; postoperative day 10, 40 mg/kg daily gavage for 10 days, n = 18, P vs control 0.091 (Table 3), 0.91, 40 mg/kg) of the same compound?
A: Its Median extent is 0 (IQR 0-2.0).

Q: What about the Median extent ([1]; postoperative day 10, 40 mg/kg daily gavage for 10 days, n = 18, P vs control 0.091 (Table 3), 0.91, listed as sunitinib, 40 mg/kg) of the same compound?
A: Its Median extent is 0.0 (IQR 0-2.0).

Q: And the Median tenacity ([1]; postoperative day 10, 40 mg/kg daily orogastric gavage for 10 days, n = 18, P vs control 0.068 (Table 3), 0.68, 40 mg/kg)?
A: The Median tenacity was 0 (IQR 0-1.0).

Q: And the Median tenacity ([1]; postoperative day 10, 40 mg/kg daily orogastric gavage for 10 days, n = 18, P vs control 0.068 (Table 3), 0.68, listed as sunitinib, 40 mg/kg)?
A: Its Median tenacity is 0.0 (IQR 0.0-1.0).

Q: And the Adhesion free mice ([1]; postoperative day 10, number of mice out of n = 18, 40 mg/kg daily for 10 days)?
A: Its Adhesion free mice is 6.

Q: What about the mice completely adhesion-free ([1]; postoperative day 10, six of 18 mice, 40 mg/kg daily for 10 days) of the same compound?
A: The mice completely adhesion-free was 33.3%.

Q: What about the Total score ([1]; postoperative day 10, 40 mg/kg daily gavage for 10 days, n = 18, P=0.002, 40 mg/kg) of the same compound?
A: The Total score was 2.0 (IQR 0-5.0).

Q: What about the Total score ([1]; postoperative day 10, 40 mg/kg daily gavage for 10 days, n = 18, P=0.002, listed as sunitinib, 40 mg/kg) of the same compound?
A: The Total score was 2.0 (IQR 0.0-5.0).

Q: And the “long-term intra-abdominal adhesion formation compared with control” value ([1]; postoperative day 30, P=0.049)?
A: The value was “significantly decreased”.

Q: What about the “long-term intra-abdominal adhesion formation compared with control” value ([1]; postoperative day 30, P=0.049, listed as sunitinib) of the same compound?
A: The value was “decreased”.

Q: What about the “adhesion prevention vs vector only control” value (adhesion formation; 7 week old male C57BL/6 mice, Table 1 study, P=0.021) of the same compound?
A: The value was “significantly prevention adhesion formation”.

Q: And the comments (adhesion formation; observation on individual mouse at scoring, 40 mg/kg/day, 10 days)?
A: Its comments is “Looked good”.

Q: And the Tenacity (adhesion formation; score of individual mouse, 0 (none) to 4 (lysed with sharp dissection), 40 mg/kg/day in methylcellulose, daily for 10 days from day before operation, scored after 10 days, listed as SU11248, 40 mg/kg/day)?
A: The Tenacity was 1 and 0 (3×) and 2.

Q: What about the Cecal adhesions (adhesion formation; score of individual mouse, 0 (none) to 4 (lysed with sharp dissection), 40 mg/kg/day, 10 days, listed as SU11248, 40 mg/kg/day) of the same compound?
A: Its Cecal adhesions is 2 (2×) and 0 (2×) and 1.

Q: What about the Extent (adhesion formation; score of individual mouse, percent of patch covered: 0% (0), <25% (1), 25 to 50% (2), 50 to 75% (3), >75% (4), 40 mg/kg/day, 10 days, listed as SU11248, 40 mg/kg/day) of the same compound?
A: Its Extent is 3 (2×) and 0 (3×).

Q: What about the Total (adhesion formation; total adhesion score of individual mouse, sum of 3 scores, 0-12, 40 mg/kg/day, 10 days, treated vs untreated P=0.021, listed as SU11248, 40 mg/kg/day) of the same compound?
A: Its Total is 6 and 2 and 0 and 1 and 5.

Q: And the “abdominal cavity adhesions in micrograph” value (adhesions of the uterus; FIG. 4, treated rabbit)?
A: The value was “free from abdominal cavity adhesions”.

Q: And the “Extent of Uterus Covered” value (adhesions of the uterus; [4])?
A: Its value is 1.0 (IQR 0-1.0; range 0-1).

Q: What about the “Extent of Uterus Covered” value (adhesions of the uterus; [5]) of the same compound?
A: The value was 1.0.

Q: And the “Tenacity to Uterus” value (adhesions of the uterus; median score 0-4 (IQR), 10 mg/kg daily orogastric gavage for ten days from day prior to surgery, postoperative day ten, N = 8, p=0.004, listed as Sunitinib + saline, 10 mg/kg)?
A: Its value is 1.0.

Q: What about the “Total score” value (adhesions of the uterus; [4]) of the same compound?
A: The value was 2 (IQR 0-2.75; range 0-3).

Q: What about the “Total score” value (adhesions of the uterus; [5]) of the same compound?
A: Its value is 2.0.

Q: What about the “Adhesion Free Rabbits” value (adhesions of the uterus; postoperative day ten, 10 mg/kg) of the same compound?
A: The value was “Three of the eight”.

Q: What about the “Adhesion Free Rabbits” value (adhesions of the uterus; postoperative day ten, listed as Sunitinib + saline, 10 mg/kg) of the same compound?
A: The value was 3.
